For one data set, the target named is Bcl-XL (Homo sapiens, UniProt Q07817). Particulars: read-out: IC50 displacing BH3 peptides; cited from earlier work.
The target in the next data set is T1, Bcl-B (Homo sapiens, UniProt Q9HD36).
T1 sequence (Q9HD36 1-204): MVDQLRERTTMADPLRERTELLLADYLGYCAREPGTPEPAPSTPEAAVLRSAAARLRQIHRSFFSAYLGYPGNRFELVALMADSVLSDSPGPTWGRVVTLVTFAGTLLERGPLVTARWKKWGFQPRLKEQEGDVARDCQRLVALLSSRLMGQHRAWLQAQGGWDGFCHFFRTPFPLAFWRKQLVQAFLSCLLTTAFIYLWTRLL
Conditions: read-out: IC50 displacing BH3 peptides; cited from earlier work.

The next data set has as its target T2, Bfl-1 (Homo sapiens, UniProt Q16548).
T2 sequence (Q16548 1-175): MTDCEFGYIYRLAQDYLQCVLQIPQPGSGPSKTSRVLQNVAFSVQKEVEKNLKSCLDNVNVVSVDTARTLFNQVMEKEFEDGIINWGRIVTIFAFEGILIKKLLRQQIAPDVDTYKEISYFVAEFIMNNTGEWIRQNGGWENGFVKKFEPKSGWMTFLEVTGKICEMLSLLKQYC
Conditions: read-out: IC50 displacing BH3 peptides; cited from earlier work.

In a further data set the test system is Jurkat cells. The data set is described as follows: Cytoplasmic Ca2+ elevation by digital imaging in Jurkat cells. The class given is cell-based. As to the method: These compounds, along with 320 additional compounds chosen by virtual screening, were screened for hit confirmation. Also, a secondary assay for compound effect on apoptosis was performed in KMS-12-BM cells. […] Thus, a total of 39 compounds were chosen for triplicate confirmation screening. The findings are schematically summarized by means of the heat map in FIG. 5. An ID number, assigned by the chemist(s) who synthesized the compounds, is located to the left. This ID is for identification purposes only and does provide other information about the compound. Columns 1 and 2 represent caspase activity, measured after 24 hr of treatment at UCDDC, normalized to the highest caspase activity observed. Activity levels range from low, represented by the color purple, to high, represented by the color red. Considerable variation among different compounds and between the myeloma lines is observed evident. […] In addition, the same assay was used to test the sensitivity of primary human CLL cells to each compound, as summarized in lane 5. The effect of each compound on intracellular Ca^2+ concentration was measured by digital imaging and results are shown as percentage of cells responding with a significant (more than twofold above baseline) elevation of cytoplasmic Ca^2+ concentration. […] An example of Ca2^+ elevation in response to one of the compounds is illustrated in FIG. 6. […]

The next data set deals with multiple myeloma lines. The data set is described as follows: Cell death induction in multiple myeloma lines (MTS assay). The class given is cell-based, human. As to the method:
(§1) Of the compounds tested, 148 were identified as hits at 6.5 μM in the primary single-point screen with activity>30% relative to apoptosis induced by 10 μM BIRD-2 in NCI-H929 cells. These compounds, along with 320 additional compounds chosen by virtual screening, were screened for hit confirmation. Also, a secondary assay for compound effect on apoptosis was performed in KMS-12-BM cells. […] Thus, a total of 39 compounds were chosen for triplicate confirmation screening. The findings are schematically summarized by means of the heat map in FIG. 5. An ID number, assigned by the chemist(s) who synthesized the compounds, is located to the left. This ID is for identification purposes only and does provide other information about the compound. Columns 1 and 2 represent caspase activity, measured after 24 hr of treatment at UCDDC, normalized to the highest caspase activity observed. Activity levels range from low, represented by the color purple, to high, represented by the color red. Considerable variation among different compounds and between the myeloma lines is observed evident. Columns 3 and 4 in the heat map (FIG. 5) summarize results of cell death assays testing cell death induction in the same myeloma lines in the Distelhorst laboratory using the MTS assay. In addition, the same assay was used to test the sensitivity of primary human CLL cells to each compound, as summarized in lane 5. The effect of each compound on intracellular Ca^2+ concentration was measured by digital imaging and results are shown as percentage of cells responding with a significant (more than twofold above baseline) elevation of cytoplasmic Ca^2+ concentration. The choice of the Jurkat line for these Ca^2+ measurements was based on our extensive evidence that BIRD-2 binds to the BH4 domain of Bcl-2 endogenously present in this line and that disruption of Bcl-2-IP3R interaction by BIRD-2 elevates cytoplasmic Ca^2+ in this line. An example of Ca2^+ elevation in response to one of the compounds is illustrated in FIG. 6.
For orientation: Tetrazolium assays rely on reduction of a dye to a coloured formazan, in cell work by metabolically active cells.

The test system of data set [1] is primary human CLL cells. Description: Cell death induction in primary human CLL cells (MTS assay). In kind it is cell-based. The protocol: as §1
A further data set deals with T3, BH4 domain of Bcl-2 (Homo sapiens, UniProt P10415).
T3 construct: borders or tags not given
Description: Surface plasmon resonance (Biacore) binding to the BH4 domain of Bcl-2. Particulars: SPR; for pKd: dose response / full binding curve. The source says:
The next step in compound validation was to perform surface plasmon resonance (Biacore) to test for binding to the BH4 domain of Bcl-2. […] To date, we have positive evidence of compound binding to the BH4 domain in 4 compounds tested by SPR (FIG. 8). Testing of the remaining compounds from the 14 lead compounds is in progress.
Background: In SPR one partner is held on a chip, and binding of the other changes the refractive index at the surface.

The subject of data set [2] is small cell lung cancer (SCLC) cells. Description: Cytotoxicity in small cell lung cancer (SCLC) lines. In kind it is cell-based.
In data set [3] the test system is primary human CLL cells. The data set is described as follows: Ca2+ elevation in primary CLL cells. In kind it is cell-based.
Data set [4] has as its system KMS-12-BM human myeloma cells. Description: Combination with ABT-263, cell viability by CellTiter-Glo assay. Particulars: fixed concentration ratio, at several compound concentrations, CI<1 synergistic. The class given is cell-based. The source says: Since Bcl-2 works by two distinct mechanisms to inhibit apoptosis, we investigated the possibility that 854697 and ABT-263, which selectively target each of these mechanisms, might synergistically kill cancer cells. […] Combination indices (CI) were computed at each concentration to determine whether the increased cytotoxicity is due to an additive (CI=1) or synergistic (CI<1) effect. At several compound concentrations, the CI was <1, indicating synergistic cell death induction when these agents that act by different mechanisms are combined. These findings indicate additional value in developing 854697 as a novel therapeutic agent for Bcl-2-positive malignancies.
Background: In ATP-based viability assays light output follows the ATP content of the culture.

For data set [5], the system named is normal human peripheral blood lymphocytes. Description: Toxicity toward normal cells. The class given is cell-based.
Data set [6] has as its system H2171 Small cell lung cancer (SCLC) cells. Description: BIRD-2/ABT-263 combination cytotoxicity in SCLC cells. Conditions: 24 hr, FIG. 4. The class given is cell-based. The protocol: FIG. 4 is a graph illustrating BIRD-2/ABT-263 synergism. H2171 Small cell lung cancer (SCLC) cells treated from 24 hr with 5 μM BIB1 and 39 nM ABT-263 alone or together.
Data set [7] deals with human myeloma cell lines (HMCLs). Description: Apoptosis induction in human myeloma cell lines (HMCLs). The class given is cell-based. Conditions: including two lines resistant to ABT-737, ABT-263 and ABT-199. The source says: Furthermore, one of the BIRD-2-sensitive lines, NCI-H929, corresponds to a multiple molecular subgroup that is resistant to BH3-mimetic agents and belongs to a poor prognosis category associated with chromosomal translocation. Thus, although BH3-mimetic agents represent a major advance in cancer treatment, resistance to these agents occurs and limits their efficacy, not only in multiple myeloma but other lymphoid malignancies as well. The resistance problem is not unique to HMCLs, but is illustrated by studies of ABT-737 and ABT-199 in primary MM cells where resistance was detected in more than half of primary patient samples tested. Therefore, these findings indicate the potential therapeutic importance of targeting both of Bcl-2's anti-apoptotic mechanisms. Adding to the potential value of targeting Bcl-2-IP3R interaction for treatment of multiple myeloma is the evidence reported here of synergistic activity when combined with chemotherapeutic agents typically employed in multiple myeloma treatment, and with ABT-263 and ABT-199.

pIC50, pKd: −log10 of the molar value. Values joined by “and” are separate entries in the source; they are usually repeats but may differ in a detail not shown here. Equal values may be shown once. Where no end group is shown, it is not given here.

T3 sequence (P10415 6-30 limits assumed): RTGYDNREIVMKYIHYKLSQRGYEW
Chain of Bcl-XL (Q07817 whole entry, species assumed): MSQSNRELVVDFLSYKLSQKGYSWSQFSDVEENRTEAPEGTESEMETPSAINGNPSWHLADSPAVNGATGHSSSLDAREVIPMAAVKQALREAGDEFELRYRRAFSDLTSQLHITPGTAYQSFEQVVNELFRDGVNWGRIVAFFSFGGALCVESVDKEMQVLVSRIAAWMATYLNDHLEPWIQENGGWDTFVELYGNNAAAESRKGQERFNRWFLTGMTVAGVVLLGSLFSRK

Turning to `Cc1cc2c(C(C)C)c(O)c(O)c(C=O)c2c(O)c1-c1c(C)cc2c(C(C)C)c(O)c(O)c(C=O)c2c1O` [Gossypol, 1,6,7,1′,6′,7′-Hexahydroxy-5,5′-diisopropyl-3,3′-dimethyl-[2,2′]binaphthalenyl-8,8′-dicarbaldehyde], the negative logarithm of the IC50 (pIC50) at Bcl-XL, on Bcl-B and on Bfl-1 was ~6.30 each time.
In the case of `COc1ccc2c(c1)CC[C@@H]1[C@@H]2CC[C@]2(C)[C@@H](NCCCCCCN3C(=O)C=CC3=O)CC[C@@H]12` [U73122, reference compound], the “effect on 854697-induced Ca2+ elevation” value in the data set with Jurkat cells (Jurkat cells pretreated 30 min with U73122) is on record as “completely blocked”.
Regarding `O=C(/C=C/c1ccc(Cl)c(Cl)c1)NN1CCOC1=O` [compound 96505], the cell death induction result with multiple myeloma lines was “inducing cell death”. In the data set with primary human CLL cells [1], the cell death induction entry is listed as “inducing cell death”. At BH4 domain of Bcl-2, the “binding to the BH4 domain of Bcl-2” value was “bind to the BH4 domain of Bcl-2” and the pKd (commonly the Kd on a negative log10 scale, so that one unit is a factor of ten) was 4.62.
For `CSc1c(C#N)c(N)nc(SCC(=O)c2ccc(OC(F)F)cc2)c1C#N` [compound 197392], the cell death induction entry with multiple myeloma lines and in the data set on primary human CLL cells [1] was “inducing cell death” each time. The “binding to the BH4 domain of Bcl-2” value at BH4 domain of Bcl-2 was “bind to the BH4 domain of Bcl-2”.
With `CN(C)C(=O)OCC(Cc1ccc2ccccc2c1)N1CCN(C(=O)C(N)Cc2ccc(F)cc2)C(CO)C1` (centres unmarked) [compound 854697], the cell death induction result with multiple myeloma lines and in the data set on primary human CLL cells [1] was “inducing cell death” each time. Further, the “killing of small cell lung cancer cells” value in data set [2] is listed as “kills small cell lung cancer cells”. For the same compound, the “Ca2+ elevation” value in the data set with primary human CLL cells [3] was “induces Ca^2+ elevation”; with Jurkat cells (Jurkat cells), “inducing IP3R-mediated Ca^2+ elevation”. The “Combination index (CI) with ABT-263” value in [4] is given as < 1. Besides, in data set [5], the “toxic activity toward normal cells” value is reported as “does not have toxic activity toward normal cells”. For the same compound, the “binding to the BH4 domain of Bcl-2” value on BH4 domain of Bcl-2 is given as “bind to the BH4 domain of Bcl-2”. Further, the pKd on BH4 domain of Bcl-2 is 5.25 and 5.24.
Take “RKKRRQRRRGGNVYTEIKCNSLLPLAAIVRV [BIRD-2]”: in data set [6], the “cytotoxicity in combination with ABT-263” value is given as “synergistic cytotoxicity”. Also, the selective cytotoxicity entry in data set [2] (15 SCLC lines treated) is “greater than two-fold selective cytotoxicity in 11 of the lines”. For the same compound, the apoptosis induction result in [7] is listed as “induces apoptosis”.
